Experimental data: patent US11981954B2, “Compositions and methods for rapid identification and phenotypic antimicrobial susceptibility testing of bacteria and fungi” (priority 2019, dated 2024)

What was measured:
Conditions in all cases: interpreted according to CLSI M100 ED 30, confirmed by PCR ID/AST after 4 h incubation, 5E5 CFU/mL
[1] = tested on: K. pneumoniae strain 0143; experiment: PCR-based rapid ID/AST and CLSI susceptibility interpretation, K. pneumoniae strain 0143; type: cell-based, Klebsiella pneumoniae
Description: (§1) • a. Prepare antimicrobial (Abx) Plate ahead of time and store at […] until needed • i. Diluent—Cation Adjusted Mueller Hinton Broth (CAMHB) • ii. Final Vol—50 ul/well • iii. Remove from −80 C and let thaw at 30 min/Room Temp prior to use
(§2) • b. Overnight cultures in CAMHB—37 C/16-18 hrs/500 rpm • i. 10 ul glycerol stock+490 ul CAMHB in 2 mL 96-well Deep Well Plate • c. Normalize cultures to 1.00E+06 CFU/mL by Optical Density (OD) • d. Prepare Test Plate by adding 50 ul normalized test isolate to appropriate wells of Abx Plate as outlined
(§3) • e. Incubate Test Plate at 37 C/4 hrs/no shaking • f. Prepare PCR Reagents according to TABLE XXIX • g. Add 45 ul Master Mix to each well of a PCR Assay Plate • h. Following incubation, stamp 5 ul/well of Test Plate to PCR Assay Plate • i. Final Vol—50 ul/well • i. For Test Plate, continue incubating at 37 C/12-16 hrs/no shaking to determine reference method Minimum Inhibitory Concentration (MIC) • j. Load PCR Assay Plate to cobas z 480 instrument and run under conditions of TABLE XXX. • k. Following incubation read Test Plate for MIC and determine phenotypic Susceptible/Intermediate/Resistant interpretation.
(§4) The primer/probe sets used were as follows. […]
(§5) The percentages on the Y-axis depicted as “Fold Change Abx level 1” were determined using the calculation 2^-(Abx_Level_1_Ct−Reference_Ct) or 2^-([…]Ct).

[2] = tested on: K. pneumoniae strain 16565; experiment: PCR-based rapid ID/AST and CLSI susceptibility interpretation, K. pneumoniae strain 16565; type: cell-based, Klebsiella pneumoniae
Description: as §1, §2, §3, §4, §5

[3] = tested on: P. aeruginosa strain 16657; experiment: PCR-based rapid ID/AST and CLSI susceptibility interpretation, P. aeruginosa strain 16657; type: cell-based, Pseudomonas aeruginosa
Description: as §1, §2, §3, §4

[4] = tested on: P. aeruginosa strain 17816; experiment: PCR-based rapid ID/AST and CLSI susceptibility interpretation, P. aeruginosa strain 17816; type: cell-based, Pseudomonas aeruginosa
Description: as §1, §2, §3, §4

[5] = tested on: A. baumannii strain 17694; experiment: PCR-based rapid ID/AST and CLSI susceptibility interpretation, A. baumannii strain 17694; type: cell-based, Acinetobacter baumannii
Description: as §1, §2, §3, §4

[6] = tested on: A. baumannii strain 16421; experiment: PCR-based rapid ID/AST and CLSI susceptibility interpretation, A. baumannii strain 16421; type: cell-based, Acinetobacter baumannii
Description: as §1, §2, §3, §4

E. faecium strain 18483 = experiment: PCR-based rapid ID/AST and CLSI susceptibility interpretation, E. faecium strain 18483; type: cell-based, Enterococcus faecium
Description: as §1, §2
as §3, with “interpretation. […]” for “interpretation.”

E. faecium strain 18446 = experiment: PCR-based rapid ID/AST and CLSI susceptibility interpretation, E. faecium strain 18446; type: cell-based, Enterococcus faecium
Description: as §1, §2
as §3, with “interpretation. […]” for “interpretation.”

S. aureus strain 15509 = experiment: PCR-based rapid ID/AST and CLSI susceptibility interpretation, S. aureus strain 15509; type: cell-based, Staphylococcus aureus
Description: as §1, §2, §3
(§6) Rapid Identification and phenotypic antimicrobial susceptibility testing of Staphylococcus aureus utilizing three distinct target genes (gyrB, ddlA, tuf) and one class of antibacterial agent, cefoxitin (cephalosporin) was performed. […]

S. aureus strain 16405 = experiment: PCR-based rapid ID/AST and CLSI susceptibility interpretation, S. aureus strain 16405; type: cell-based, Staphylococcus aureus
Description: as §1, §2, §3, §6

Row | Compound | antimicrobial susceptibility of the strain to the given antimicrobial [1] | antimicrobial susceptibility of the strain to the given antimicrobial [2] | antimicrobial susceptibility of the strain to the given antimicrobial [3] | antimicrobial susceptibility of the strain to the given antimicrobial [4] | antimicrobial susceptibility of the strain to the given antimicrobial [5] | antimicrobial susceptibility of the strain to the given antimicrobial [6] | antimicrobial susceptibility of the strain to the given antimicrobial (E. faecium strain 18483) | antimicrobial susceptibility of the strain to the given antimicrobial (E. faecium strain 18446) | antimicrobial susceptibility of the strain to the given antimicrobial (S. aureus strain 15509) | antimicrobial susceptibility of the strain to the given antimicrobial (S. aureus strain 16405)
1 | gentamicin | resistant | sensitive | resistant | sensitive | resistant | sensitive | – | – | – | –
2 | C[C@@H](O)[C@H]1C(=O)N2C(C(=O)O)=C(S[C@@H]3CN[C@H](C(=O)N(C)C)C3)[C@H](C)[C@H]12 [meropenem] | resistant | sensitive | resistant | sensitive | resistant | sensitive | – | – | – | –
3 | CC1(C)S[C@@H]2[C@H](NC(=O)[C@H](N)c3ccccc3)C(=O)N2[C@H]1C(=O)O [ampicillin] | – | – | – | – | – | – | resistant | sensitive | – | –
4 | CO[C@@]1(NC(=O)Cc2cccs2)C(=O)N2C(C(=O)O)=C(COC(N)=O)CS[C@@H]21 [cefoxitin] | – | – | – | – | – | – | – | – | resistant | sensitive
5 | CN[C@H](CC(C)C)C(=O)N[C@H]1C(=O)N[C@@H](CC(N)=O)C(=O)N[C@H]2C(=O)N[C@H]3C(=O)N[C@H](C(=O)N[C@H](C(=O)O)c4cc(O)cc(O)c4-c4cc3ccc4O)[C@H](O)c3ccc(c(Cl)c3)Oc3cc2cc(c3O[C@@H]2O[C@H](CO)[C@@H](O)[C@H](O)[C@H]2O[C@H]2C[C@](C)(N)[C@H](O)[C@H](C)O2)Oc2ccc(cc2Cl)[C@H]1O [vancomycin] | – | – | – | – | – | – | resistant | sensitive | – | –
